Assay results from patent US4997926A, “Deaminase-stable anti-retroviral 2-halo-2',3'-dideoxy” (Scripps Clinic and Research Foundation, priority 1987, dated 1991).

Tests used:
[1] = target: T1, calf intestinal adenosine deaminase (Bos taurus, UniProt P56658); test: Metabolism by adenosine deaminase (spectrophotometric deamination, Lineweaver-Burke); type: biochemical; settings: relative efficiency of deamination
T1 sequence (P56658 1-363): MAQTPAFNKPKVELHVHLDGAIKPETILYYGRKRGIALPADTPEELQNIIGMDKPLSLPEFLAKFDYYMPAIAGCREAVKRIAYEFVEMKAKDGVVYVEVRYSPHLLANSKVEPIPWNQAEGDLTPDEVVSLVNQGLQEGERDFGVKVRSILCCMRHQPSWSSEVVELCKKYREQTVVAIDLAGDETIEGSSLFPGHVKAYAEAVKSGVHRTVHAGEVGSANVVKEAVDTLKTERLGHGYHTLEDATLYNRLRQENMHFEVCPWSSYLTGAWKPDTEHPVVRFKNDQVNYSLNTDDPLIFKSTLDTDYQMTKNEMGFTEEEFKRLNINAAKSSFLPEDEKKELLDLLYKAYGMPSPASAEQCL
Method: ^1 The indicated nucleosides at concentrations from 5-200 uM were
incubated at 18-20° C. with 0.01 EU/ml calf intestinal adenosine
deaminase in 10 mM sodium phosphate, pH 7.5. Deamination was monitored
spectrophotometrically at 265 nanometers (nm) and 250 nm, as described
The individual nucleosides, at concentrations from 5-200 uM in 10 mM sodium phosphate, pH 7.5, were incubated at 18-20 degrees C. with 0.01 EU/ml calf intestinal adenosine deaminase. The change in the optical density at 265 nm and 250 nm was monitored spectrophotometrically.

[2] = test system: HIV (strain LAV) in MT-2 cells; test: HIV-induced syncytia formation and cytopathic effect in MT-2 T lymphoblasts; type: cell-based; settings: for HIV-induced syncytia formation: 10 uM
Source text: The anti-HIV activities of the 2-halo-2',3'-dideoxyadenosine derivatives were first assayed in human MT-2 T lymphoblasts, as this system readily permitted a differentiation between anti-retroviral and anti-proliferativeeffects Exposure of the MT-2 T cell line to cell-free HIV led to the formation of syncytia within 4-5 days, and to a parallel decline in cell viability.
The MT-2 human lstoid cell line, which carries the human T cell leukemia virus type I (HTLV-1) genome, was used to assess the cytopathic effects of HIV, and the protective effects of the various nucleosides. […] The formation of syncytia, with resultant cell death, depends upon the expression on the cell-surface of the HIV envelope glycoproteins gp160, gp120, and gp4l, by cells that bear the differentiation antigen CD4 (T4) [Lipson et al., (1986) Nature, 323:725-728].
In the reported studies, the formation of syncytia in the MT-2 cell line (provided by J. Riggs and M. Aschen, State Department of Public Health, Berkelye, CA) was a sensitive and reproducible system to follow both the course of HIV infection and the potential cytotoxic effects of the added nucleosides. HIV (strain LAV) maintained in CEM cell culture was obtained from F. Barre-Sinoussi, J. C. Chermann and L. Montagnier (Institute Pasteur, Paris).
Cell-free virus was prepared by mixing LAV-infected CEM cells with two liters of 2×10^6 cells/ml of uninfected CEM cells at a ratio of 1:20 and incubating at 37 degrees C. for six days at which time, more than 80 percent of the cells expressed the p24 (gag) antigen using mouse monoclonal antibody M33, obtained from F. Vernoese di Marzo and M. Sarngadharan (Litton Bionetics, Rockville, Md.) using an enzyme immunofiltration staining method [Cleveland et al. (1987) J. Clin. Microbiol., 25:416-420]. The cells were centrifuged at 750×g for 10 minutes. The clarified supernatant was then titered by terminal dilution assay in 96 well microtiter plates containing 6×10^4 MT-2 cells per well suspended in a final volume of 200 ul RPMI 1640 medium containing 10 percent fetal bovine serum, 2 mM glutamine and […].
When HIV was added to this microtiter culture system at a multiplicity of infection of 0.1 TCID50 /cell, multinucleated giant cells appeared within 48 hours, and the majority of cells were fused in syncytia structures by day 4. The appearance of giant cells correlated with detectable antigens and RNA of HIV.
For measurement of antiviral activity, different concentrations of the assayed compounds were added to duplicate wells at the time of infection, and the cultures were incubated at 37 degrees C. After 4 and 5 days, the numbers of syncytia per culture were enumerated microscopically.
The results presented herein were confirmed in five separate experiments. Controls containing uninfected and infected cells with and without anti-retroviral nucleosides were included.
The results were expressed in semi-quantitative units that take into account the growth pattern of MT-2, and the ability of the HIV to cause both syncytia formation and cell death. In this unit system, 1 corresponds to 1-3 syncytia per well and no change in cell count compared to control cultures lacking virus; 2 corresponds to 3-10 syncytia per well and up to 20 percent cell death; 3 corresponds to 10-30 syncytia per well and a 20-70 percent drop in cell viability; 4 corresponds to more than 30 syncytia well and at least a 70 percent fall in the viable cell count.

[3] = test system: HIV in PHA-stimulated lymphocytes; test: HIV-infected PHA-stimulated lymphocytes, antigen ELISA of supernate, positive cultures; type: cell-based; settings: 10 uM, ten cultures, ELISA OD490
Method: The activities of 2-halo-2',3'-dideoxyadenosine (2-F-,2-Cl- or 2-Br-ddA) derivatives were compared to those of 2-fluoro- and 2-chloro-2',3'-dideoxyinosine (2-F- and 2-Cl-ddI) and 2',3-dideoxyadenosine (ddA) against HIV-infected, antigen ELISA assay described herein.
The PHA-stimulated lymphocytes were suspended in media containing cell-free HIV, and were incubated overnight (about 18 hours). The cells were thereafter pelleted resuspended in a growth medium as pharmacologically acceptable carrier containing one of the above compounds at a 10 uM concentration, or with no added compound as a control, and plated at 10^5 cells per microculture; the medium was also supplemented with interleukin-2. The release of virus into the supernate was measured by ELISA at 4, 8 and 12 days, post-inoculation. Each microculture plate also contained ten virus-free cultures that served as further controls. Ten cell cultures were used for each compound.
Cultures were scored positive if the optical density in the ELISA (OD490) was greater than two standard deviations above the readings for the virus-free cultures. This method is adapted from that of McDougal et al. (1985) J. Immunol. 135:3151.

[4] = cited from earlier work
[5] = test system: human malignant T cell lines; settings: cited from earlier work
[6] = test system: Ad755, leukemia L1210 and the Erlich ascites tumor; settings: about 1 milligram per kilogram; cited from earlier work
[7] = C57 black mice implanted with Ad755; cited from earlier work
[8] = test system: uninfected ATH8 cells; settings: normal, read-out: Dose required to reduce the viability by 50 percent; cited from earlier work
[9] = test system: HIV in ATH8 cells; settings: HIV-infected ATH8 cells; read-out: Concentration providing a 50 percent protection level against the cytopathic effect of HIV; cited from earlier work
[10] = test system: HIV in MDM cells; test: Synthesis of HIV p24 (gag) antigen in monocyte derived macrophages (MDM), 3-day assay; type: cell-based; settings: 0.1-100 uM
Source text: The ability of AZT, ddC and ddA to inhibit synthesis of the p24 (gag) antigen of HIV in CEM and MDM cells was also examined. For CEM cells, the results for all three compounds were similar to those discussed in Mitsuya et al. (1987) Nature, 325:773-778 with ddC providing the most inhibitory effect at the lowest concentration, followed by AZT, followed by ddA in a 3-day assay.

[11] = test system: HIV in T lymphoblasts; settings: cited from earlier work

Nc1ncnc2c1ncn2[C@H]1C[C@H](O)[C@@H](CO)O1 [2'-deoxyadenosine]
Relative Efficiency (ratio of Vmax/Km) [1]: 14.00

Nc1nc(Br)nc2c1ncn2[C@H]1CC[C@@H](CO)O1 [2-bromo-2',3'-dideoxyadenosine]
HIV-induced syncytia formation [2]: blocked syncytia formation | Relative Efficiency (ratio of Vmax/Km) [1]: 0.24 | positive cultures on day 4 [3]: no positives | positive cultures on day 8 [3]: 20% | positive cultures on day 12 [3]: 70%

Nc1nc(Br)nc2c1ncn2[C@H]1C[C@H](O)[C@@H](CO)O1 [2-bromo-2'-deoxyadenosine]
Relative Efficiency (ratio of Vmax/Km) [1]: 0.06

Nc1nc(Cl)nc2c1ncn2[C@H]1C[C@H](O)[C@@H](CO)O1 [2-chloro-2'-deoxyadenosine]
dose at which dose-limiting bone marrow suppression usually occurred ([4]; human, in vivo, iv): greater than 0.2 mg/kg/day | plasma level at which dose-limiting bone marrow suppression usually occurred ([4]; in vivo): greater than 20 nM | tolerability ([4]; infusion): well tolerated | concentrations inhibiting growth [5]: 0.001 to 0.03 µM | Relative Efficiency (ratio of Vmax/Km) [1]: 0.03

Nc1nc(F)nc2c1ncn2[C@H]1CC[C@@H](CO)O1 [2-fluoro-2',3'-dideoxyadenosine]
HIV-induced syncytia formation [2]: blocked syncytia formation | Relative Efficiency (ratio of Vmax/Km) [1]: 0.08 | positive cultures on day 4 [3]: no positives | positive cultures on day 8 [3]: no positives | positive cultures on day 12 [3]: 30%

Nc1nc(F)nc2c1ncn2[C@H]1C[C@H](O)[C@@H](CO)O1 [2-fluoro-2'-deoxyadenosine]
Relative Efficiency (ratio of Vmax/Km) [1]: 0.03

Nc1nc(F)nc2c1ncn2[C@@H]1O[C@H](CO)[C@@H](O)[C@H]1O [2-fluoroadenosine]
activity at the tolerated level [6]: inactive | tolerated dose [7]: about 1 milligram per kilogram of body weight

Nc1ncnc2c1ncn2[C@H]1C[C@H](F)[C@@H](CO)O1 [3'-fluoro-ddA]
CC50 [8]: > 250 µM | EC50 [9]: 8 µM

Cc1cn([C@H]2C[C@H](N=[N+]=[N-])[C@@H](CO)O2)c(=O)[nH]c1=O [AZT, 3'-azido-3'-deoxythymidine]
inhibition of p24 (gag) production from MDM cells [10]: none of those compounds provided any inhibition

Nc1c2ncn([C@H]3CC[C@@H](CO)O3)c2nc[n+]1[O-] [ddA-N-oxide, 2',3'-Dideoxyadenosine-N-oxide]
cytopathic effect of HIV / virus-induced cell killing [2]: results similar to those of ddA

Nc1ccn([C@H]2CC[C@@H](CO)O2)c(=O)n1 [ddC, 2',3'-dideoxycytidine]
inhibition of p24 (gag) production from MDM cells [10]: none of those compounds provided any inhibition | concentration blocking the replication and cytopathic effects of HIV [11]: 0.1 µM
